Data published in paper PMC6112376, “Comprehensive Analyses and Prioritization of Tox21 10K Chemicals Affecting Mitochondrial Function by in-Depth Mechanistic Studies” (Environmental Health Perspectives, 2018).
Read-outs that look alike come from different tables or passages of the source.

Key:
HepG2 cells [1] = details: cited from earlier work; for IC50: read-out: MMP assays IC50 (µM) qHTS-HepG2
rat primary hepatocytes = assay: MMP assay in rat primary hepatocytes; details: for IC50: read-out: MMP assays IC50 (µM) Rat Hepatocytes
HepG2 cells [2] = details: for IC50: read-out: MMP assays IC50 (µM) HepG2
[3] = rat hepatocytes, mean ± SD of three experiments
[4] = HepG2 cells, single number from one experiment

SMILES | MMP assays efficacy (%) qHTS-HepG2 (HepG2 cells [1]) | IC50 (HepG2 cells [1]) | IC50 (rat primary hepatocytes) | MMP assays efficacy (%) HepG2 (HepG2 cells [2]) | IC50 (HepG2 cells [2]) | MMP assays IC50 (µM) qHTS-HepG2 (HepG2 cells [1]) | MMP assays IC50 (µM) Rat Hepatocytes (rat primary hepatocytes; [3]) | MMP assays efficacy (%) Rat Hepatocytes (rat primary hepatocytes; [3]) | MMP assays IC50 (µM) HepG2 (HepG2 cells [2]; [4]) | MMP assays efficacy (%) HepG2 (HepG2 cells [2]; [4]) | IC50 (HepG2 cells [2]; [4]) | IC50 (rat primary hepatocytes; [3]) | MMP assays IC50 (µM) Rat Hepatocytes (rat primary hepatocytes) | MMP assays IC50 (µM) HepG2 (HepG2 cells [2]) | IC50 (rat primary hepatocytes; Rattus norvegicus, Hepatocyte)
O=C(Nc1ccc([N+](=O)[O-])cc1)Nc1ccc([N+](=O)[O-])cc1 [4,4'-Dinitrodiphenylurea] | -79±2% | 0.46 ± 0.06 µM | 0.7 ± 0.46 µM | -90% | 0.97 µM |  |  |  |  |  |  |  |  |  | 
CC(C)(C)c1cc(Cc2cc(C(C)(C)C)c(O)c(C(C)(C)C)c2)cc(C(C)(C)C)c1O [4,4'-Methylenebis(2,6-di-t-butylphenol)] | inactive |  |  |  |  | inactive | inactive | inactive | inactive | inactive |  |  |  |  | 
O=C(CC(=O)C(F)(F)F)c1ccccc1 [4,4,4-Trifluoro-1-phenyl-1,3-butanedione] | -103±7% | 20.4 ± 6.17 µM |  |  |  |  | inactive | inactive |  | -85% | 31.6 µM |  |  |  | 
CCCCCCCCOc1ccc(C(=O)O)cc1 [4-Octyloxybenzoic acid] | -100±24% | 39.6 ± 31.3 µM |  |  |  |  |  | -57±30% | inactive | inactive |  | 48 ± 11.6 µM |  |  | 
Oc1ccc2cc(SSc3ccc4cc(O)ccc4c3)ccc2c1 [6-Hydroxy-2-naphthyl disulfide] | -110±7% | 33.7 ± 3.64 µM |  |  |  |  |  | -68±46% |  | -98% | 28.2 µM | 39.8 µM |  |  | 
C=C1CC[C@H](O)C/C1=C/C=C1\CCC[C@]2(C)[C@@H]([C@H](C)CC[C@@H](O)C(C)(C)O)CC[C@@H]12 [24R,25-Dihydroxyvitamin D3] | -111±10% | 13 ± 2.17 µM |  |  |  |  |  | -46±4% |  | -133% | 15.5 µM | 17.3 µM |  |  | 
CCCCCCCC/C=C\CCCCCCCC(N)=O [(9Z)-Octadec-9-enamide] | -67±17% | 41.6 ± 7.16 µM |  |  |  |  | inactive | inactive | inactive | inactive |  |  |  |  | 
CCC(=C(CC)c1ccc(O)cc1)c1ccc(O)cc1 [(Z,E)-Diethylstilbestrol] | -98±10% |  | 42.8 ± 10.3 µM | -104% |  |  |  |  |  |  |  |  |  |  | 
Cc1cc(N)c2cc(NC(=O)Nc3ccc4nc(C)cc(N)c4c3)ccc2n1.Cl.Cl [Aminoquinuride dihydrochloride] | -99±7% | 25 ± 4.09 µM |  |  |  |  |  | inactive |  | -90% | 27.5 µM |  |  |  | 
CCCCC/C(C=O)=C/c1ccccc1 [Amyl cinnamal] | inactive |  |  | inactive |  | inactive |  |  |  |  |  |  | inactive | inactive | 
O=C1c2ccccc2Cc2ccccc21 [Anthrone] | -70±4% | 21.8 ± 9.9 µM |  |  |  |  |  | -68±22% | inactive | inactive |  |  |  |  | 42.4 ± 12 µM
COC(=O)C1=C(C)NC(C)=C(C(=O)OCC(C)=O)C1c1ccccc1[N+](=O)[O-] (stereo not shown) [Aranidipine] | -56±6% | 12.8 ± 3.68 µM |  |  |  |  | inactive | inactive | inactive | inactive |  |  |  |  | 
CC(C)(C)NCC(O)CSc1nc(-c2ccc(C(N)=O)s2)cs1.Cl (stereo not shown) [Arotinolol hydrochloride] | -64±8% | 17 ± 3.45 µM |  |  |  |  | inactive | inactive |  | -88% | 27.5 µM |  |  |  | 
CCN=C1C=CC(=C(c2ccc(N(CC)CC)cc2)c2ccc(N(CC)CC)cc2)c2ccccc21.Cl [Basic blue 7] | -87±17% | 0.02 ± 0.03 µM |  |  |  |  |  | -79±39% |  | -78% | 0.05 µM | 1.53 ± 1.42 µM |  |  | 
CCC(=O)OCC(=O)[C@@]1(OC(=O)CC)[C@@H](C)C[C@H]2[C@@H]3CCC4=CC(=O)C=C[C@]4(C)[C@@]3(Cl)[C@@H](O)C[C@@]21C [Beclazone] | -103±9% | 23.7 ± 2.74 µM |  |  |  |  |  | -89±79% |  | -61% | 21.8 µM | 16.3 ± 20.6 µM |  |  | 
CCCCCCCCCCCC[N+](C)(C)Cc1ccccc1.[Br-] [Benzyldodecyldimethylammonium bromide] | -97±11% | 11.4 ± 4.34 µM |  |  |  |  |  | -44±3% |  |  | 17.3 µM | 18.4 ± 1.5 µM |  |  | 

SMILES | MMP assays efficacy (%) qHTS-HepG2 (HepG2 cells [1]) | IC50 (HepG2 cells [1]) | IC50 (rat primary hepatocytes) | MMP assays efficacy (%) HepG2 (HepG2 cells [2]) | IC50 (HepG2 cells [2]) | MMP assays IC50 (µM) qHTS-HepG2 (HepG2 cells [1]) | MMP assays IC50 (µM) Rat Hepatocytes (rat primary hepatocytes; [3]) | MMP assays efficacy (%) Rat Hepatocytes (rat primary hepatocytes; [3]) | MMP assays IC50 (µM) HepG2 (HepG2 cells [2]; [4]) | MMP assays efficacy (%) HepG2 (HepG2 cells [2]; [4]) | IC50 (HepG2 cells [2]; [4]) | IC50 (rat primary hepatocytes; [3]) | MMP assays IC50 (µM) Rat Hepatocytes (rat primary hepatocytes) | MMP assays IC50 (µM) HepG2 (HepG2 cells [2]) | IC50 (rat primary hepatocytes; Rattus norvegicus, Hepatocyte)
COc1cc(Nc2c(C#N)cnc3cc(OCCCN4CCN(C)CC4)c(OC)cc23)c(Cl)cc1Cl [Bosutinib;PF-5208763/SKI-606] | -97±4% | 0.75 ± 0.48 µM |  |  |  |  |  | -56±1% |  | -57% | 1.23 µM | 16.6 ± 11.2 µM |  |  | 
Cc1cc(C(=C2C=CC(=N)C=C2)c2ccc(N)cc2)ccc1N [C.I. Basic violet 14] | -87±10% | 0.18 ± 0.16 µM |  |  |  |  |  | -71±37% |  | -96% | 0.87 µM | 6.84 ± 4.71 µM |  |  | 
O=C1c2c(O)ccc(Nc3ccc(CCO)cc3)c2C(=O)c2c([N+](=O)[O-])ccc(O)c21 [C.I. Disperse blue 27] | -86±8% | 2.34 ± 0.87 µM |  |  |  |  |  | -72±24% |  | -119% | 25.1 µM | 32.5 ± 10.4 µM |  |  | 
CCC(=O)O[C@]1(C(=O)CCl)[C@@H](C)C[C@H]2[C@@H]3CCC4=CC(=O)C=C[C@]4(C)[C@@]3(F)[C@@H](O)C[C@@]21C [Clobetasol propionate] | -98±19% | 24.6 ± 1.67 µM |  |  |  |  |  | -39±3% | inactive | inactive |  |  |  |  | 24.1 ± 9.54 µM
C[C@H]1C[C@H]2[C@@H]3CCC4=CC(=O)C=C[C@]4(C)[C@@]3(F)[C@@H](O)C[C@]2(C)[C@@]1(O)C(=O)CCl [Clobetasol] | -91±13% | 14.4 ± 3.67 µM |  |  |  |  |  | -64±43% |  | -87% | 17.3 µM | 19.8 ± 15.6 µM |  |  | 
Nc1cc(Cl)c([N+](=O)[O-])cc1O [Compound 2-Amino-4-chloro-5-nitrophenol] | -104±19% | 21.5 ± 2.48 µM |  |  |  |  |  | -47±13% |  | -107% | 25.1 µM | 31.3 ± 8.72 µM |  |  | 
Nc1nc2ccc([N+](=O)[O-])cc2s1 [Compound 2-Amino-6-nitrobenzothiazole] | -70±17% | 12.7 ± 10.5 µM |  |  |  |  |  | -81±29% |  | -89% | 44.7 µM | 22.7 ± 20.4 µM |  |  | 
COc1ccc(C(=O)c2ccccc2)c(O)c1 [Compound 2-Hydroxy-4-methoxybenzophenone] | inactive |  |  |  |  | inactive |  |  | inactive | inactive |  |  |  |  | 50.1 ± 18.9 µM
CC(C)c1ccccc1O [Compound 2-Isopropylphenol] | inactive |  |  |  |  | inactive | inactive | inactive | inactive | inactive |  |  |  |  | 
Cc1nc2ccccc2s1 [Compound 2-Methylbenzothiazole] | inactive |  |  |  |  | inactive | inactive | inactive | inactive | inactive |  |  |  |  | 
CCCCCc1ccco1 [Compound 2-Pentylfuran] | -76±20% | 42.2 ± 2.81 µM |  |  |  |  | inactive | inactive | inactive | inactive |  |  |  |  | 
CC(=O)c1ccc2ccc3ccccc3c2c1 [Compound 3-Acetylphenanthrene] | -105±10% | 36.9 ± 13.7 µM |  |  |  |  |  | -44±5% |  | -105% | 56.2 µM | 42.2 ± 19.8 µM |  |  | 
O=C(c1ccccc1)c1cccc(O)c1 [Compound 3-Hydroxybenzophenone] | -87±9% | 27.7 µM |  |  |  |  | inactive | inactive |  | -86% | 39.8 µM |  |  |  | 
Oc1ccc(Cl)cc1C1CCCC1 [Compound 4-Chloro-2-cyclopentylphenol] | -99±4% | 5.66 ± 1.93 µM |  |  |  |  |  | -85±8% |  | -99% | 6.31 µM | 33.6 ± 29.7 µM |  |  | 
CCc1ccc(O)cc1 [Compound 4-Ethylphenol] | inactive |  |  |  |  | inactive | inactive | inactive | inactive | inactive |  |  |  |  | 
